Results taken from ChEMBL document CHEMBL1212738, “Phenotypic and genotypic characterization of Enterobacteriaceae with decreased susceptibility to carbapenems: results from large hospital-based surveillance studies in China” (2010).
Values after ≈ are worked out from the molar mass of the structure shown.

How the values were obtained:
[1] = system: Klebsiella pneumoniae; assay: Antimicrobial activity against Klebsiella pneumoniae PU104T expressing TEM-1, CTX-M-15 by CLSI method; assay type: functional
[2] = system: Escherichia coli; assay: Antimicrobial activity against Escherichia coli ZJ87 expressing KPC-2, TEM-1, ompC by CLSI method; assay type: functional
[3] = system: Enterobacter cloacae; assay: Antimicrobial activity against carbapenem-resistant Enterobacter cloacae SZ93 deficient in ompC by CLSI method; assay type: functional
[4] = system: Klebsiella pneumoniae; assay: Antimicrobial activity against Klebsiella pneumoniae FZ47T expressing IMP-8, TEM-1, CTX-M-14, qnrB2, aac(6')-Ib by CLSI method; assay type: functional
[5] = system: Enterobacter cloacae; assay: Antimicrobial activity against carbapenem-resistant Enterobacter cloacae NJ88 deficient in CTX-M-14, ompC/F by CLSI method; assay type: functional
[6] = system: Klebsiella pneumoniae; assay: Antimicrobial activity against Klebsiella pneumoniae GZ64 expressing IMP-4, ompK35/36 by CLSI method; assay type: functional
[7] = system: Escherichia coli; assay: Antimicrobial activity against carbapenem-resistant Escherichia coli PU102 deficient in TEM-1, CTX-M-14, CMY-2, aac(6')-Ib, ompC DEc, ompF by CLSI method; assay type: functional
[8] = system: Escherichia coli; assay: Antimicrobial activity against carbapenem-resistant Escherichia coli HX74 deficient in TEM-1, CTX-M-14, CTX-M-3, aac(6')-Ibcr, ompC/F by CLSI method; assay type: functional
[9] = system: Klebsiella pneumoniae; assay: Antimicrobial activity against Klebsiella pneumoniae ZJ70T expressing KPC-2 by CLSI method; assay type: functional
[10] = system: Klebsiella pneumoniae; assay: Antimicrobial activity against carbapenem-resistant Klebsiella pneumoniae ZJ18 deficient in KPC-2, SHV-28, DHA-1, ompK35 by CLSI method; assay type: functional
[11] = system: Klebsiella pneumoniae; assay: Antimicrobial activity against Klebsiella pneumoniae ZJ68T expressing CTX-M-15 by CLSI method; assay type: functional
[12] = system: Citrobacter freundii; assay: Antimicrobial activity against Citrobacter freundii RJ78 expressing CMY-2, qnrA1, aac(6')-Ib-cr, ompC by CLSI method; assay type: functional
[13] = system: Klebsiella pneumoniae; assay: Antimicrobial activity against Klebsiella pneumoniae FZ49T expressing IMP-8, TEM-1, CTX-M-14, qnrB2, aac(6')-Ib by CLSI method; assay type: functional
[14] = system: Klebsiella aerogenes; assay: Antimicrobial activity against carbapenem-resistant Enterobacter aerogenes PU41 deficient in CTX-M-14, DHA-1, qnrS1, ompC DEc, ompF by CLSI method; assay type: functional
[15] = system: Klebsiella pneumoniae; assay: Antimicrobial activity against Klebsiella pneumoniae WH97 expressing SHV-33, aac(6')-Ib, ompK35 DE by CLSI method; assay type: functional
[16] = system: Klebsiella pneumoniae; assay: Antimicrobial activity against carbapenem-resistant Klebsiella pneumoniae SX67 deficient in SHV-2, CTX-M-14, DHA-1, qnrB6/S1, aac(6')-Ib-cr, ompK35/36 by CLSI method; assay type: functional
[17] = system: Enterobacter cloacae; assay: Antimicrobial activity against carbapenem-resistant Enterobacter cloacae NJ91 deficient in CTX-M-14, ompC/F by CLSI method; assay type: functional
[18] = system: Escherichia coli; assay: Antimicrobial activity against Escherichia coli C600 transconjugant GZ66T expressing SHV-11, DHA-1 by CLSI method
[19] = system: Escherichia coli; assay: Antimicrobial activity against carbapenem-resistant Escherichia coli PU43 deficient in TEM-1, CTX-M-14, aac(6')-Ib, ompC/F by CLSI method; assay type: functional
[20] = system: Enterobacter cloacae; assay: Antimicrobial activity against carbapenem-resistant Enterobacter cloacae WH103 deficient in IMP-4, TEM-1, CTX-M-3, qnrS1, ompC by CLSI method; assay type: functional
[21] = system: Klebsiella aerogenes; assay: Antimicrobial activity against Enterobacter aerogenes PU41T expressing CTX-M-14, DHA-1, qnrS1 by CLSI method; assay type: functional
[22] = system: Klebsiella pneumoniae; assay: Antimicrobial activity against carbapenem-resistant Klebsiella pneumoniae PU3 deficient in DHA-1, aac(6')-Ib-cr, ompK35/36 by CLSI method; assay type: functional
[23] = system: Escherichia coli; assay: Antimicrobial activity against Escherichia coli ZJ86T expressing KPC-2 by CLSI method; assay type: functional
[24] = system: Enterobacter cloacae; assay: Antimicrobial activity against carbapenem-resistant Enterobacter cloacae NJ89 deficient in CTX-M-14, ompC/F by CLSI method; assay type: functional
[25] = system: Klebsiella pneumoniae; assay: Antimicrobial activity against Klebsiella pneumoniae GZ64T expressing IMP-4 by CLSI method; assay type: functional
[26] = system: Klebsiella pneumoniae; assay: Antimicrobial activity against Klebsiella pneumoniae ZJ18T expressing KPC-2, DHA-1 by CLSI method; assay type: functional
[27] = system: Klebsiella pneumoniae; assay: Antimicrobial activity against carbapenem-resistant Klebsiella pneumoniae PU104 deficient in TEM-1, SHV-11, CTX-M-15, qnrS1, ompK35/36 by CLSI method; assay type: functional
[28] = system: Escherichia coli; assay: Antimicrobial activity against carbapenem-resistant Escherichia coli PU60 deficient in TEM-1, CMY-2, ompC/F by CLSI method; assay type: functional
[29] = system: Enterobacter cloacae; assay: Antimicrobial activity against carbapenem-resistant Enterobacter cloacae RJ94 deficient in IMP-4, TEM-1, CTX-M-3, ompC by CLSI method; assay type: functional
[30] = system: Escherichia coli; assay: Antimicrobial activity against carbapenem-resistant Escherichia coli PU96 deficient in TEM-1, CTX-M-14, CMY-2, ompC/F by CLSI method; assay type: functional
[31] = system: Enterobacter cloacae; assay: Antimicrobial activity against carbapenem-resistant Enterobacter cloacae NJ90 deficient in CTX-M-14, ompC/F by CLSI method; assay type: functional
[32] = system: Escherichia coli; assay: Antimicrobial activity against Escherichia coli C600 transconjugant XJ81T expressing TEM-1, SHV-12, aac(6')-Ib by CLSI method
[33] = system: Escherichia coli; assay: Antimicrobial activity against Escherichia coli PU102T expressing TEM-1, CTX-M-14, CMY-2 by CLSI method; assay type: functional

Row | SMILES | MIC [1] [µg/mL] | MIC [2] [µg/mL] | MIC [3] [µg/mL] | MIC [4] [µg/mL] | MIC [6] [µg/mL] | MIC [7] [µg/mL] | MIC [9] [µg/mL] | MIC [10] [µg/mL] | MIC [11] [µg/mL] | MIC [12] [µg/mL] | MIC [13] [µg/mL] | MIC [14] [µg/mL] | MIC [15] [µg/mL] | MIC [16] [µg/mL] | MIC [18] [µg/mL] | MIC [20] [µg/mL] | MIC [21] [µg/mL] | MIC [23] [µg/mL] | MIC [25] [µg/mL] | MIC [26] [µg/mL] | further results
1 | C[C@@H](O)[C@H]1C(=O)N2C(C(=O)O)=C(SCCNC=N)C[C@H]12 [IMIPENEM ANHYDROUS] | 0.25 (≈ 0.835 µM) | 8 (≈ 26.7 µM) | 4 (≈ 13.4 µM) | 4 (≈ 13.4 µM) | 16 (≈ 53.4 µM) | 16 (≈ 53.4 µM) | 16 (≈ 53.4 µM) | 16 (≈ 53.4 µM) | 0.5 (≈ 1.67 µM) | 8 (≈ 26.7 µM) | 4 (≈ 13.4 µM) | 32 (≈ 107 µM) | 2 (≈ 6.68 µM) | 4 (≈ 13.4 µM) | 0.5 (≈ 1.67 µM) | 8 (≈ 26.7 µM) | 0.5 (≈ 1.67 µM) | 8 (≈ 26.7 µM) | 2 (≈ 6.68 µM) | 2 (≈ 6.68 µM) | MIC [5]: 16 µg/mL (≈ 53.4 µM); MIC [8]: 4 µg/mL (≈ 13.4 µM); MIC [17]: 16 µg/mL (≈ 53.4 µM); MIC [19]: 8 µg/mL (≈ 26.7 µM); MIC [22]: 32 µg/mL (≈ 107 µM); MIC [24]: 16 µg/mL (≈ 53.4 µM); MIC [27]: 2 µg/mL (≈ 6.68 µM); MIC [28]: 32 µg/mL (≈ 107 µM); MIC [29]: 8 µg/mL (≈ 26.7 µM); MIC [30]: 32 µg/mL (≈ 107 µM); MIC [31]: 16 µg/mL (≈ 53.4 µM); MIC [32]: 0.25 µg/mL (≈ 0.835 µM)
2 | C[C@@H](O)[C@H]1C(=O)N2C(C(=O)O)=C(S[C@@H]3CN[C@H](C(=O)N(C)C)C3)[C@H](C)[C@H]12 [MEROPENEM] | 0.032 (≈ 0.0834 µM) | 8 (≈ 20.9 µM) | 0.125 (≈ 0.326 µM) | 1 (≈ 2.61 µM) | 8 (≈ 20.9 µM) | 8 (≈ 20.9 µM) | 8 (≈ 20.9 µM) | 8 (≈ 20.9 µM) | 0.032 (≈ 0.0834 µM) | 2 (≈ 5.22 µM) | 1 (≈ 2.61 µM) | 8 (≈ 20.9 µM) | 2 (≈ 5.22 µM) | 2 (≈ 5.22 µM) | 0.032 (≈ 0.0834 µM) | 8 (≈ 20.9 µM) | 0.032 (≈ 0.0834 µM) | 8 (≈ 20.9 µM) | 2 (≈ 5.22 µM) | 1 (≈ 2.61 µM) | MIC [33]: 0.032 µg/mL (≈ 0.0834 µM); MIC [27]: 8 µg/mL (≈ 20.9 µM); MIC [28]: 8 µg/mL (≈ 20.9 µM); MIC [29]: 8 µg/mL (≈ 20.9 µM); MIC [30]: 8 µg/mL (≈ 20.9 µM)
3 | CO/N=C(\C(=O)N[C@@H]1C(=O)N2C(C(=O)O)=C(COC(C)=O)CS[C@H]12)c1csc(N)n1 [CEFOTAXIME] | 256 (≈ 562 µM) | 64 (≈ 141 µM) | 1 (≈ 2.2 µM) | 128 (≈ 281 µM) | 256 (≈ 562 µM) | > 256 | 64 (≈ 141 µM) | 128 (≈ 281 µM) | > 256 | 256 (≈ 562 µM) | 128 (≈ 281 µM) | > 256 | 128 (≈ 281 µM) | > 256 | 16 (≈ 35.1 µM) | > 256 | 128 (≈ 281 µM) | 32 (≈ 70.3 µM) | 128 (≈ 281 µM) | 8 (≈ 17.6 µM) | MIC [5]: > 256 µg/mL; MIC [8]: > 256 µg/mL; MIC [17]: > 256 µg/mL; MIC [19]: > 256 µg/mL; MIC [22]: 128 µg/mL (≈ 281 µM); MIC [24]: > 256 µg/mL; MIC [33]: 256 µg/mL (≈ 562 µM); MIC [27]: > 256 µg/mL; MIC [28]: 256 µg/mL (≈ 562 µM); MIC [29]: > 256 µg/mL; MIC [30]: > 256 µg/mL; MIC [31]: > 256 µg/mL; MIC [32]: 4 µg/mL (≈ 8.78 µM)
4 | CC(C)(O/N=C(\C(=O)N[C@@H]1C(=O)N2C(C(=O)[O-])=C(C[n+]3ccccc3)CS[C@H]12)c1csc(N)n1)C(=O)O [CEFTAZIDIME] | 64 (≈ 117 µM) | 32 (≈ 58.5 µM) | 0.5 (≈ 0.915 µM) | > 256 | > 256 | 64 (≈ 117 µM) | 32 (≈ 58.5 µM) | 64 (≈ 117 µM) | 256 (≈ 468 µM) | 128 (≈ 234 µM) | > 256 | 64 (≈ 117 µM) | > 256 | > 256 | 128 (≈ 234 µM) | > 256 | 64 (≈ 117 µM) | 32 (≈ 58.5 µM) | 256 (≈ 468 µM) | 16 (≈ 29.3 µM) | MIC [5]: > 256 µg/mL; MIC [8]: 256 µg/mL (≈ 468 µM); MIC [17]: > 256 µg/mL; MIC [19]: 32 µg/mL (≈ 58.5 µM); MIC [22]: 128 µg/mL (≈ 234 µM); MIC [24]: > 256 µg/mL; MIC [33]: 64 µg/mL (≈ 117 µM); MIC [27]: > 256 µg/mL; MIC [28]: 256 µg/mL (≈ 468 µM); MIC [29]: > 256 µg/mL; MIC [30]: > 256 µg/mL; MIC [31]: > 256 µg/mL; MIC [32]: 64 µg/mL (≈ 117 µM)
